“Also recorded” adds a separate entry of the source.
Experiments:
[1] = test system: HT29 tumor; assay: In vivo efficacy of CAIX targeting bispecific adapters on HT29 tumor model; set-up: species or system mouse; conditions: NSG mice, subcutaneous HT29, 10 million anti-FITC CAR-T cells plus adapter; FIG. 7B
Description: (§1) HT29 cells (1.5 million) were implanted into each NOD scid gamma (NSG) mouse by subcutaneous injection. When the tumor volumes reached about 100 mm^3, the treatment groups were injected with 10 million anti-FITC CAR-T cells and bispecific adapters as shown in FIG. 7A. The tumor volume and body weight were monitored regularly. Tumor volume was calculated using the formular: (length*width^2)/2.

[2] = test system: HT29 cells; assay: Total binding and FITC surface exposure of CAIX bispecific adapters on HT29 cells; assay type: cell-based; conditions: 1 μM adapter, 1 hour room temperature; FIG. 3A
Description: (§2) HT29 cells or MDA-CAIX cells were incubated with 1 μM bispecific adapters with different ligands to CAIX and different polyethylene glycol (PEG) linkers in complete RPMI medium (RPMI+10% FBS) for one hour at room temperature. Free compounds were washed away, and fluorescent intensity of fluorescein isothiocyanate (FITC) was analyzed by flow cytometry.
(§3) To analyze the surface exposure of the FITC moiety, the stained cells were incubated with allophycocyanin (APC)-anti-FITC antibody on ice for 30 minutes. Then the cells were washed, and the fluorescent intensity of APC was analyzed by flow cytometer.

[3] = test system: MDA-CAIX tumors; assay: In vivo efficacy of CAIX targeting bispecific adapters on MDA-CAIX tumor model; set-up: species or system mouse; conditions: NSG mice, subcutaneous MDA-CAIX, 10 million anti-FITC CAR T-cells plus adapter; FIG. 10B
Description: MDA-CAIX cells (5 million) were implanted into each NSG mouse by subcutaneous injection. When the tumor volumes reached about 100 mm^3, the treatment groups were injected with 10 million anti-FITC CAR T-cells and indicated bispecific adapters as shown in FIG. 10A. The tumor volume and body weight were monitored regularly. Tumor volume was calculated using the formular: (length*width^2)/2.

[4] = test system: T cells; assay: T cell counts in the blood and HT29 tumors from mice at end of treatments; set-up: species or system mouse; conditions: end of HT29 in vivo study
Description: At the end of the in vivo study on HT29 solid tumor model described in FIGS. 7A-7C, blood was collected from the mice, and the red blood cells in the blood were lysed by using red blood cell lysis buffer (BioLegend, San Diego, CA). The remaining cells were stained with anti-human CD3 antibody on ice for 30 minutes. The number of T cells was analyzed by flow cytometry. To analyze tumor-infiltrated T cells, tumors were dissected and digested to single cells. The digested cells were stained with Zombie Violet cell viability staining dye (BioLegend. San Diego, CA) and anti-human CD3 antibody. The percentage of CD3 T cells in total live cells was analyzed by flow cytometry.

[5] = test system: anti-FITC CAR-T cells co-cultured with MDA-CAIX cells; assay: Bispecific adapter mediated IFNγ release from anti-FITC CAR-T cells co-cultured with MDA-CAIX cells (ELISA); assay type: cell-based; conditions: adapter concentration between 0.001 nM and 1 nM; MDA-CAIX co-culture; FIGS. 4B, 5B
Description: (§4) Anti-FITC CAR-T cells were incubated with an equal number of MDA-CAIX cells in the presence of bispecific adapters at different concentrations. The number of MDA-CAIX cells was determined at the end of the co-culture, and the percentage of cell lysis was calculated using the following formula: [(number of untreated cells−number of treated cells)/number of untreated cells]*100%.
Secretion of interferon gamma (IFNγ) from anti-FITC CAR-T cells was analyzed by enzyme-linked immunosorbent assay (ELISA) using the supernatants of the co-cultured medium at the end of the co-culture.
Secretion of IFNγ from anti-FITC CAR T cells was analyzed by ELISA using the supernatants of the co-cultured medium at the end of the co-culture.
Secretion of IFNγ from anti-FITC CAR T cells was analyzed by ELISA using the supernatants of the co-cultured medium at the end of the co-culture study.

[6] = test system: anti-FITC CAR-T cells co-cultured with HT29 cells; assay: Bispecific adapter mediated anti-FITC CAR-T cell IFNγ release when co-cultured with HT29 cells (ELISA); assay type: cell-based; conditions: HT29 cells at 1:5 ratio, 40 hours
Description: Anti-FITC CAR-T cells were incubated with HT29 cells at 1:5 ratio in the presence of the bispecific adapters at different concentrations for 40 hours. Secretion of IFNγ from anti-FITC CAR-T cells was analyzed by ELISA using the supernatants of the co-cultured medium at the end of the co-culture study.
Anti-FITC CAR T cells were incubated with HT29 cells at 1:5 ratio in the presence of the bispecific adapters at different concentrations for 40 hours. Secretion of IFNγ from anti-FITC CAR T cells was analyzed by ELISA using the supernatants of the co-cultured medium at the end of the co-culture study.

[7] = Body weight change of mice in HT29 tumor model; assay type: in vivo, mouse; conditions: HT29 tumor-bearing NSG mice treated with anti-FITC CAR-T cells plus adapter; FIG. 7C
Description: as §1

[8] = test system: HT29 tumor cells; assay: Retention and surface exposure of CAIX bispecific adapters in HT29 tumor cells from injected mice; assay type: in vivo, mouse; conditions: 500 nmol/kg, 24 hours after injection, APC-anti-FITC staining; FIG. 8C
Description: HT29 tumor bearing mice were injected with CAIX bispecific adapters at 500 nmol/kg. After injection (24 hours later), the tumors were dissected and digested into single cells. The total retention of the bispecific adapters was determined by the FITC fluorescence intensity analyzed by flow cytometry. To analyze the FITC exposure of the bispecific adapters on the tumor cell surface, the digested tumor cells were stained with APC-anti-FITC antibody on ice for 30 minutes. After washing away unbound antibody, the fluorescent intensity of APC was analyzed by flow cytometry.

[9] = test system: MDA-CAIX cells; assay: Bispecific adapter mediated anti-FITC CAR-T cell cytotoxicity to MDA-CAIX cells; assay type: cell-based
Description: as §4
Anti-FITC CAR-T cells were incubated with an equal number of MDA-CAIX cells in the presence of the bispecific adapters at different concentrations. The number of MDA-CAIX cells was determined at the end of the co-culture, and the percentage of cell lysis was calculated using the following formula: [(number of untreated cells−number of treated cells)/number of untreated cells]*100%.
Anti-FITC CAR T cells were incubated with an equal number of MDA-CAIX cells in the presence of the bispecific adapters at different concentrations. The number of MDA-CAIX cells were determined at the end of the co-culture and the percentage of cell lysis was calculated using the following formula: [(number of untreated cells−number of treated cells)/number of untreated cells]*100%.

[10] = Body weight change of mice in KB tumor model; assay type: in vivo, mouse; conditions: KB tumor-bearing NSG mice; FIG. 16C
Description: KB cells (1 million) were implanted into each NSG mouse by subcutaneous injection. When the tumor volumes reached about 50 mm^3, the treatment groups were injected with 10 million anti-FITC CAR-T cells and indicated bispecific adapters as shown in FIG. 16A. The tumor volume and body weight were monitored regularly. Tumor volume was calculated using the formula: (length*width^2)/2.

[11] = test system: MDA-CAIX tumor cells; assay: Retention and surface exposure of CAIX bispecific adapters in MDA-CAIX tumor cells from treated mice; assay type: in vivo, mouse; conditions: for CAIX levels of tumor cells (MFI of FITC after staining with 100 nM meta-CAL-PEG6-FITC in vitro): MDA-CAIX tumors from treated mice, FIG. 11C
Description: MDA-CAIX tumors from mice in different treatment groups were dissected and digested into single cells 24 hours after the last injections with CAIX bispecific adapters at 500 nmol/kg. The total retention of the bispecific adapters was determined by the FITC fluorescence intensity analyzed by flow cytometry. To estimate the CAIX protein levels in the tumor cells, the cells were stained with 100 nM meta-CAL-PEG6-FITC for 1 hour at room temperature and analyzed by flow cytometry. The FITC exposure of the bispecific adapters on the tumor cell surface was analyzed by flow cytometry after staining with APC-anti-FITC antibody on ice for 30 minutes. Surface exposure of FITC was also analyzed in the cells stained with 100 nM meta-CAL-PEG6-FITC.

[12] = test system: MDA-CAIX cells; assay: Total binding and FITC surface exposure of CAIX bispecific adapters on MDA-CAIX cells; assay type: cell-based; conditions: 1 μM adapter, 1 hour room temperature; FIG. 3C
Description: as §2, §3

[13] = low concentrations (between 0.001 nM and 0.1 nM), FIG. 5A

SMILES	growth of HT29 tumor (tumor volume) [1]	total binding to HT29 cells (MFI of FITC) [2]	growth of MDA-CAIX tumors (tumor volume) [3]	IFNγ release from anti-FITC CAR-T cells [5]	surface retention and FITC exposure in HT29 tumors (MFI of APC-anti-FITC) [8]	efficacy of anti-FITC CAR-T cell cytotoxicity, lysis (%) [9, 13]	CAIX levels of tumor cells (MFI of FITC after staining with 100 nM meta-CAL-PEG6-FITC in vitro) [11]	also measured
NS(=O)(=O)c1c(F)c(F)c(S(=O)(=O)CCC(=O)NCCOCCOCCOCCNC(=S)Nc2ccc(-c3c4ccc(=O)cc-4oc4cc(O)ccc34)c(C(=O)O)c2)c(NC2CCCCCCC2)c1F [meta-CAL-PEG3-FITC]	slightly inhibited the growth of HT29 tumor	better total binding to HT29 cells than the other adapters	slightly inhibited the growth of MDA-CAIX tumors					
NS(=O)(=O)c1c(F)c(F)c(S(=O)(=O)CCC(=O)NCCOCCOCCOCCOCCOCCOCCOCCOCCOCCNC(=S)Nc2ccc(-c3c4ccc(=O)cc-4oc4cc(O)ccc34)c(C(=O)O)c2)c(NC2CCCCCCC2)c1F [meta-CAL-PEG9-FITC]	significantly inhibited the growth of HT29 tumor			higher levels of IFNγ release from anti-FITC CAR-T cells than meta-CAL-PEG3-FITC	better FITC exposure than meta-CAL-PEG3-FITC	higher efficacy than meta-CAL-PEG3-FITC		T cell counts in blood ([4]; anti-human CD3 staining, FIG. 9A): more T cells than the blood from other treatment groups; tumor-infiltrated T cells (CD3+ T cells/live cells) ([4]; digested tumors, FIG. 9B): more tumor-infiltrated T cells; IFNγ released from anti-FITC CAR-T cells ([6]; low concentrations (<0.1 nM), FIG. 15): highest level of IFNγ released from anti-FITC CAR-T cells; body weight change [7]: lost body weight
NS(=O)(=O)c1c(F)c(F)c(SCCC(=O)NCCOCCOCCOCCOCCOCCOCCNC(=S)Nc2ccc(-c3c4ccc(=O)cc-4oc4cc(O)ccc34)c(C(=O)O)c2)c(F)c1NC1CCCCCCC1 [ortho-CAL-PEG6-FITC]			significantly inhibited the growth of MDA-CAIX tumors				complete eradication of CAIX^+ tumor cells by CAR T cells	body weight change [10]: did not induce significant body weight loss; also recorded: didn't induce significant body weight loss; staining of anti-FITC antibody (MFI of APC-anti-FITC after staining with 100 nM meta-CAL-PEG6-FITC in vitro) ([11]; MDA-CAIX tumor cells from treated mice, FIG. 11E): almost no staining of anti-FITC antibody; IFNγ released from anti-FITC CAR-T cells ([6]; ELISA, FIGS. 14, 15): lower levels of IFNγ released from anti-FITC CAR-T cells
NS(=O)(=O)c1c(F)c(F)c(S(=O)(=O)CCC(=O)NCCOCCOCCOCCOCCOCCOCCNC(=S)Nc2ccc(-c3c4ccc(=O)cc-4oc4cc(O)ccc34)c(C(=O)O)c2)c(NC2CCCCCCC2)c1F [meta-CAL-PEG6-FITC]				higher level of IFNγ release from anti-FITC CAR-T cells than ortho-CAL-PEG6-FITC and Aza-FITC; also recorded: higher levels of IFNγ release from anti-FITC CAR-T cells than meta-CAL-PEG3-FITC	better FITC exposure than meta-CAL-PEG3-FITC	higher efficacy than meta-CAL-PEG3-FITC		surface retention and FITC exposure in MDA-CAIX tumors (MFI of APC-anti-FITC) ([11]; 24 hours after last injection at 500 nmol/kg, FIG. 11D): slightly better surface retention and FITC exposure than the other compounds; efficacy of anti-FITC CAR-T cell cytotoxicity, lysis (%) ([9]; adapter between 0.001 nM and 10 nM, equal number of CAR-T and MDA-CAIX cells, FIG. 4A): higher than ortho-CAL-PEG6-FITC and Aza-FITC
NS(=O)(=O)c1nnc(NC(=O)CCCCCCCNC(=S)Nc2ccc(-c3c4ccc(=O)cc-4oc4cc(O)ccc34)c(C(=O)O)c2)s1 [Aza-FITC]	slightly inhibited the growth of HT29 tumor	better total binding to HT29 cells than the other adapters					slightly higher CAIX levels than tumors treated with meta-CAL-FITC with PEG3 or PEG6	total binding to MDA-CAIX cells (MFI of FITC) [12]: better total binding to MDA-CAIX cells
